Assay results taken from PMC9709406 (Frontiers in Pharmacology, 2022).
Where “and” joins values, the source holds several entries; their conditions need not be identical. Equal entries are not always repeated. Where two headings read alike, the source gives them in different places. One block for each molecule: values may come before it.

Key:
[1] = tested on: KYSE410 cells; experiment: MTT assay, KYSE410; type: cell-based, human; details: for IC50: Homo sapiens, 48 h
Excerpt: (§1) The human cancer cells (H1650, H1975, KYSE70, KYSE410 and KYSE450) were purchased from the Type Culture Collection of the Chinese Academy of Sciences (Shanghai, China). The human immortalized normal esophageal epithelial cell line SHEE was donated by Dr. Enmin Li from the Laboratory of Tumor Pathology (Shantou University Medical College, Shantou, Guangdong, China). Drug-resistant cells (H1650TR, H1975OR, KYSE70TR, KYSE410TR and KYSE450TR) were induced by China-US (Henan) Hormel Cancer Institute. The cellswere cultured in RPMI-1640 complete growth medium containing 100 U/mL penicillin-streptomycin and 10% FBS. Based on the above medium formula, 100 nm/L paclitaxel was added in taxol-resistant cells, 100 nm/L gefitinib was added in gefitinib-resistant cells. The cells were incubated at 37 °C in an atmosphere containing 5% of CO2. The compounds were dissolved in DMSO to make a 50 mM stock solution and were diluted to the concentration of working solutions with complete growth medium before administration.
(§2) Cells were seeded in 96-well plates with 2,200–2,500 cells/well in100 μL. One day after seeding, test compounds with the concentration between 0 and 50 μM were added with 0.1% DMSO as control. Five multiple wells for each concentration. After 48 h, MTT was added and incubated in the plate for 1–4 h in the incubator. The absorbance at 490 nm was measured using a microplate reader (Thermo).

[2] = tested on: KYSE410TR cells; experiment: MTT assay, taxol-resistant KYSE410TR; type: cell-based, human; details: Homo sapiens, KYSE 410 TR, MTT, resistance-inducing drug (taxol)
Excerpt: as §1
(§3) Cells were seeded in 96-well plates with 2,200–2,500 cells/well in100 μL. One day after seeding, test compounds with the concentration between 0 and 50 μM were added with 0.1% DMSO as control. Five multiple wells for each concentration. […] The absorbance at 490 nm was measured using a microplate reader (Thermo).

[3] = tested on: KYSE450TR cells; experiment: MTT assay, taxol-resistant KYSE450TR; type: cell-based, human; details: Homo sapiens, KYSE 450 TR, MTT, resistance-inducing drug (taxol)
Excerpt: as §1, §3

[4] = tested on: KYSE70TR cells; experiment: MTT assay, taxol-resistant KYSE70TR; type: cell-based, human; details: Homo sapiens, KYSE 70 TR, MTT, resistance-inducing drug (taxol)
Excerpt: as §1, §3

[5] = tested on: H1975 cells; experiment: MTT assay for cell proliferation and cytotoxicity, H1975; type: cell-based, human; details: Homo sapiens, NCI-H1975, 48 h, MTT, 48 h, H1975, n = 5; read-out: IC50 48 h H1975
Excerpt: as §1, §3

[6] = tested on: KYSE70 cells; experiment: MTT assay, KYSE70; type: cell-based, human; details: for IC50: Homo sapiens, KYSE-70, MTT, 48 h, KYSE70, n = 5
Excerpt: as §1, §2

[7] = tested on: H1650 cells; experiment: MTT assay for cell proliferation and cytotoxicity, H1650; type: cell-based; details: Homo sapiens, NCI-H1650, 48 h, H1650, n = 5
Excerpt: as §1, §2

[8] = tested on: SHEE cells; experiment: MTT assay, normal esophageal epithelial cell line SHEE; type: cell-based; details: Homo sapiens, 48 h, n = 5
Excerpt: as §1, §2

[9] = tested on: KYSE450 cells; experiment: MTT assay, KYSE450; type: cell-based, human; details: for IC50: Homo sapiens, KYSE-450, MTT, 48 h, KYSE450, n = 5, read-out: IC50 48 h KYSE450; for absorbance 490 nm, single well / mean absorbance 490 nm (row G) / mean absorbance 490 nm minus background (row H): KYSE450
Excerpt: as §1, §2

[10] = KYSE-410, MTT, KYSE410, n = 5, read-out: IC50 48 h KYSE410
[11] = concentration 12.5 (unit not given)
[12] = concentration 25 (unit not given)
[13] = concentration 50 (unit not given)
[14] = concentration 100 (unit not given)

Compound: CC(=O)O[C@H]1C(=O)[C@@]2(C)[C@H]([C@H](OC(=O)c3ccccc3)[C@]3(O)C[C@H](OC(=O)[C@H](O)[C@@H](NC(=O)c4ccccc4)c4ccccc4)C(C)=C1C3(C)C)[C@]1(OC(C)=O)CO[C@@H]1C[C@@H]2O [taxol, reference compound]
IC50 ([1]; KYSE 410, MTT, resistance-inducing drug (taxol), read-out: 48 h IC50): 0.0524 ± 0.00345 µM | IC50 ([2]; 24 h, read-out: 24 h IC50): 6.4 ± 0.43 µM | IC50 ([2]; 48 h, read-out: 48 h IC50): 1.71 ± 0.05 µM | IC50 ([3]; 24 h, read-out: 24 h IC50): 0.266 ± 0.0661 µM | IC50 ([3]; 48 h, read-out: 48 h IC50): 0.12 ± 0.0301 µM | IC50 ([4]; 24 h, read-out: 24 h IC50): 4.92 ± 0.274 µM | IC50 ([4]; 48 h, read-out: 48 h IC50): 1.12 ± 0.0352 µM

Compound: Fc1ccc(CCn2cc(-c3cccc(Nc4ncnc5cc6c(cc45)OCCOCCOCCO6)c3)nn2)cc1 [compound 3v]
IC50 [5]: 11.1 ± 0.95 µM | IC50 [6]: 6.93 ± 0.37 µM | blank-corrected absorbance 490 nm relative to control (fraction) ([6]; KYSE70, concentration 12.5): 0.0977 | inhibition (1 minus fraction of control) ([6]; KYSE70, concentration 12.5): 0.9023 | blank-corrected absorbance 490 nm relative to control (fraction) ([6]; KYSE70, concentration 25): 0.03951 | inhibition (1 minus fraction of control) ([6]; KYSE70, concentration 25): 0.9605 | blank-corrected absorbance 490 nm relative to control (fraction) ([6]; KYSE70, concentration 50): 0.1249 | inhibition (1 minus fraction of control) ([6]; KYSE70, concentration 50): 0.8751 | blank-corrected absorbance 490 nm relative to control (fraction) ([6]; KYSE70, concentration 100): 0.0961 | inhibition (1 minus fraction of control) ([6]; KYSE70, concentration 100): 0.9039 | melting point: 110 to 113 °C | IC50 [7]: 11.6 ± 0.96 µM | IC50 [8]: 8.26 ± 0.71 µM | IC50 [1, 10]: 21.6 ± 1.35 µM | blank-corrected absorbance 490 nm relative to control (fraction) ([1]; KYSE410, concentration 12.5): 1.2383 | inhibition (1 minus fraction of control) ([1]; KYSE410, concentration 12.5): -0.2383 | blank-corrected absorbance 490 nm relative to control (fraction) ([1]; KYSE410, concentration 25): 0.4202 | inhibition (1 minus fraction of control) ([1]; KYSE410, concentration 25): 0.5798 | blank-corrected absorbance 490 nm relative to control (fraction) ([1]; KYSE410, concentration 50): 0.1986 | inhibition (1 minus fraction of control) ([1]; KYSE410, concentration 50): 0.8014 | blank-corrected absorbance 490 nm relative to control (fraction) ([1]; KYSE410, concentration 100): -0.03723 | inhibition (1 minus fraction of control) ([1]; KYSE410, concentration 100): 1.037 | IC50 [9]: 11 ± 0.97 µM | absorbance 490 nm, single well [9, 11]: 0.3527 and 0.3885 and 0.4267 and 0.4169 | mean absorbance 490 nm (row G) [9, 11]: 0.3962 | mean absorbance 490 nm minus background (row H) [9, 11]: 0.3414 | absorbance 490 nm, single well [9, 12]: 0.1525 and 0.1448 and 0.156 and 0.143 and 0.153 | mean absorbance 490 nm (row G) [9, 12]: 0.1499 | mean absorbance 490 nm minus background (row H) [9, 12]: 0.09506 | absorbance 490 nm, single well [9, 13]: 0.0873 and 0.0943 and 0.1023 and 0.0955 | mean absorbance 490 nm (row G) [9, 13]: 0.09485 | mean absorbance 490 nm minus background (row H) [9, 13]: 0.04005 | absorbance 490 nm, single well [9, 14]: 0.0657 and 0.0611 and 0.0638 and 0.0596 and 0.0609 | mean absorbance 490 nm (row G) [9, 14]: 0.06222 | mean absorbance 490 nm minus background (row H) [9, 14]: 0.00742

Compound: Cc1ccc(Cn2cc(-c3cccc(Nc4ncnc5cc6c(cc45)OCCOCCOCCO6)c3)nn2)cc1 [compound 3o]
IC50 [5]: 8.7 ± 0.66 µM | IC50 [6]: 14.6 ± 0.96 µM | melting point: 124 to 127 °C | IC50 [7]: 5.6 ± 0.29 µM | IC50 [8]: 22.4 ± 1.26 µM | IC50 [1, 10]: > 50 µM | IC50 [9]: 4.81 ± 0.36 µM

Compound: COc1cccc(Cn2cc(-c3cccc(Nc4ncnc5cc6c(cc45)OCCOCCOCCO6)c3)nn2)c1 [compound 3t]
IC50 [5]: 20 ± 1.52 µM | IC50 [6]: > 50 µM | melting point: 131 to 134 °C | IC50 [7]: 21 ± 1.91 µM | IC50 [8]: 33.3 ± 1.99 µM | IC50 [1, 10]: > 50 µM | IC50 [9]: 45.6 ± 2.01 µM

Second part, led by results:

melting point: 137 to 140 °C
Compound: Ic1ccccc1-n1cc(-c2cccc(Nc3ncnc4cc5c(cc34)OCCOCCOCCO5)c2)nn1 [compound 3h]
IC50 [5]: 12.1 ± 0.92 µM | IC50 [6]: 18.4 ± 1.05 µM | IC50 [7]: 30.6 ± 1.99 µM | IC50 [8]: 22.6 ± 1.19 µM | IC50 [1, 10]: > 50 µM | IC50 [9]: 16.7 ± 1.31 µM

melting point: 123 to 126 °C
Compound: Fc1cccc(-n2cc(-c3cccc(Nc4ncnc5cc6c(cc45)OCCOCCOCCO6)c3)nn2)c1 [compound 3a]
IC50 [5]: 9.87 ± 0.88 µM | IC50 [6]: 10.2 ± 0.88 µM | IC50 [7]: 15.6 ± 1.02 µM | IC50 [8]: 12.1 ± 0.97 µM | IC50 [1, 10]: 48.6 ± 2.16 µM | IC50 [9]: 7.24 ± 0.65 µM

melting point: 161 to 164 °C
Compound: Brc1ccccc1Cn1cc(-c2cccc(Nc3ncnc4cc5c(cc34)OCCOCCOCCO5)c2)nn1 [compound 3s]
IC50 [5]: > 50 µM | IC50 [6]: 9.35 ± 0.89 µM | IC50 [7]: 17.1 ± 1.64 µM | IC50 [8]: 14.2 ± 0.94 µM | IC50 [1, 10]: 19.2 ± 1.22 µM | IC50 [9]: 23.4 ± 1.13 µM

melting point: 122 to 125 °C
Compound: COc1cccc(-n2cc(-c3cccc(Nc4ncnc5cc6c(cc45)OCCOCCOCCO6)c3)nn2)c1 [compound 3i]
IC50 [5]: 19.7 ± 1.07 µM | IC50 [6]: 7.02 ± 0.64 µM | blank-corrected absorbance 490 nm relative to control (fraction) ([6]; KYSE70, concentration 12.5): 0.1099 | inhibition (1 minus fraction of control) ([6]; KYSE70, concentration 12.5): 0.8901 | blank-corrected absorbance 490 nm relative to control (fraction) ([6]; KYSE70, concentration 25): 0.08489 | inhibition (1 minus fraction of control) ([6]; KYSE70, concentration 25): 0.9151 | blank-corrected absorbance 490 nm relative to control (fraction) ([6]; KYSE70, concentration 50): 0.007475 | inhibition (1 minus fraction of control) ([6]; KYSE70, concentration 50): 0.9925 | blank-corrected absorbance 490 nm relative to control (fraction) ([6]; KYSE70, concentration 100): -0.01388 | inhibition (1 minus fraction of control) ([6]; KYSE70, concentration 100): 1.014 | IC50 [7]: 6.25 ± 0.54 µM | IC50 [8]: 28.1 ± 1.38 µM | IC50 [1, 10]: > 50 µM | blank-corrected absorbance 490 nm relative to control (fraction) ([1]; KYSE410, concentration 12.5): 0.4787 | blank-corrected absorbance 490 nm relative to control (fraction) ([1]; KYSE410, concentration 25): 0.6596 | blank-corrected absorbance 490 nm relative to control (fraction) ([1]; KYSE410, concentration 50): 1.468 | blank-corrected absorbance 490 nm relative to control (fraction) ([1]; KYSE410, concentration 100): 0.817 | IC50 [9]: 10 ± 0.93 µM | absorbance 490 nm, single well [9, 11]: 0.3641 and 0.3196 and 0.3651 | mean absorbance 490 nm (row G) [9, 11]: 0.3496 | mean absorbance 490 nm minus background (row H) [9, 11]: 0.2948 | absorbance 490 nm, single well [9, 12]: 0.1604 and 0.1809 and 0.1731 | mean absorbance 490 nm (row G) [9, 12]: 0.1715 | mean absorbance 490 nm minus background (row H) [9, 12]: 0.1167 | absorbance 490 nm, single well [9, 13]: 0.1052 and 0.1046 and 0.0923 and 0.1026 | mean absorbance 490 nm (row G) [9, 13]: 0.1012 | mean absorbance 490 nm minus background (row H) [9, 13]: 0.04637 | absorbance 490 nm, single well [9, 14]: 0.0702 and 0.0745 and 0.0767 and 0.0714 | mean absorbance 490 nm (row G) [9, 14]: 0.0732 | mean absorbance 490 nm minus background (row H) [9, 14]: 0.0184
